The term MIC denotes the lowest concentration found to suppress growth. Low values mean a more susceptible organism, high ones a less susceptible organism.

Experimental findings from DBAASP are described below.

Among the test systems are Serratia rubidaea X01; Candida albicans 820; Escherichia coli ML-35; Aspergillus fumigatus; Bibersteinia trehalosi; Pasteurella multocida; Staphylococcus aureus; Klebsiella pneumoniae; Candida albicans; Escherichia coli UB1005; Escherichia coli ML-35p; Escherichia coli BAS 849; Escherichia coli mcr106; Enterococcus faecium.
Experiment in all cases: ≥ marks a high value that may be exact or a test limit, other limits are often not marked, values filed in µg/mL are converted to µM
Experiment [1] concerns Staphylococcus aureus ATCC 2592.
The test system of experiment [2] is Candida albicans ATCC 2002.
In experiment [3] the test system is Rhodococcus rhodochrous X15.
Experiment [4] has as its system Bacillus licheniformis X39.
Experiment [5] deals with Psychrobacter faecalis X29.
The test system of experiment [6] is Staphylococcus carnosus KHS.
In experiment [7] the test system is Listeria monocytogenes EGD.
In experiment [8] the test system is Corynebacterium pseudotuberculosis ATCC 19410.
Experiment [9] concerns Mannheimia haemolytica Serovar 6.
In experiment [10] the test system is Mannheimia haemolytica Serovar 1.
Experiment [11] has as its system Salmonella enterica subsp. arizonae.
The subject of experiment [12] is Pseudomonas aeruginosa PAO1.
Experiment [13] deals with Mannheimia haemolytica Serovar 2.
The subject of experiment [14] is Pseudomonas aeruginosa 253.
Experiment [15] has as its system Staphylococcus epidermidis.
The subject of experiment [16] is Pseudomonas aeruginosa 919.
For experiment [17], the system named is Staphylococcus aureus ATCC 25923.
In experiment [18] the test system is Pseudomonas aeruginosa 910.
For experiment [19], the system named is Enterococcus faecalis ATCC 29212.
Experiment [20] concerns Pseudomonas aeruginosa H103.
Experiment [21] concerns Salmonella enterica serovar Typhimurium.
Experiment [22] has as its system Pseudomonas aeruginosa SBI-N.
For experiment [23], the system named is Pseudomonas aeruginosa MR2123.
Experiment [24] has as its system Pseudomonas aeruginosa MR3007.
Experiment [25] concerns Staphylococcus aureus 930918-3.
Experiment [26] deals with Salmonella enterica subsp. enterica serovar Typhimurium ATCC 14028s.
Experiment [27] relates to Salmonella enterica serovar typhimurium MS7953s.
Experiment [28] relates to Enterococcus faecium 94-132.
Experiment [29] relates to Staphylococcus aureus 30371.
Experiment [30] deals with Staphylococcus aureus 28841.
Experiment [31] deals with Enterococcus faecalis CDC 21.

≈ marks a conversion by molar mass, not a printed value.

For `CC[C@H](C)[C@H](NC(=O)[C@H](CCC(=O)O)NC(=O)[C@H](CCCCN)NC(=O)[C@H](C)NC(=O)[C@H](C)NC(=O)[C@@H](NC(=O)[C@H](CCCCN)NC(=O)CNC(=O)[C@H](Cc1ccccc1)NC(=O)[C@H](CC(=O)O)NC(=O)[C@H](CCCCN)NC(=O)[C@H](CC(C)C)NC(=O)[C@@H](NC(=O)[C@H](CO)NC(=O)[C@H](CCSC)NC(=O)[C@H](CC(C)C)NC(=O)CN)[C@@H](C)O)[C@@H](C)O)C(=O)N[C@@H](C)C(=O)N[C@@H](CCC(N)=O)C(=O)N[C@@H](CO)C(=O)N[C@@H](CC(C)C)C(=O)N[C@@H](CC(C)C)C(=O)N[C@@H](CO)C(=O)N[C@H](C(=O)N[C@@H](C)C(=O)N[C@@H](CO)C(=O)N[C@H]1CSSC[C@@H](C(=O)O)NC(=O)[C@H]([C@@H](C)O)NC(=O)[C@H](CCCCN)NC(=O)[C@H](C)NC(=O)[C@H](CC(C)C)NC(=O)[C@H](CCCCN)NC1=O)[C@@H](C)O` [GLMSTLKDFGKTAAKEIAQSLLSTASCKLAKTC], the MIC was 3.66 µM (≈ 12.5 µg/mL) in [1]; not below 58.5 µM in experiment [2]; 29.3 µM (≈ 99.9 µg/mL) in the experiment with Serratia rubidaea X01; 0.468 µM (≈ 1.6 µg/mL) in experiment [3]; 14.6 µM (≈ 50 µg/mL) in [4]; 1.84 µM (≈ 6.3 µg/mL) in [5]. The compound further had an MIC in experiment [6] of 1.84 µM (≈ 6.3 µg/mL).

Consider `CC[C@H](C)[C@@H]1NC(=O)[C@@H]2CSSC[C@H](NC(=O)[C@H](Cc3ccc(O)cc3)NC(=O)[C@@H](NC(=O)[C@H](CC(C)C)NC(=O)[C@H](CCCNC(=N)N)NC(=O)CNC(=O)CNC(=O)[C@@H](N)CCCNC(=N)N)CSSC[C@@H](C(=O)N[C@H](C(N)=O)C(C)C)NC1=O)C(=O)N[C@@H](CCCNC(=N)N)C(=O)N[C@@H](CCCNC(=N)N)C(=O)N[C@@H](CCCNC(=N)N)C(=O)N[C@@H](Cc1ccccc1)C(=O)N2` [RGGRLCYCRRRFCICV], for which the MIC (in experiment [7]; in the experiment with Candida albicans 820; in the experiment with Escherichia coli ML-35) was 12.7 µM (≈ 24.9 µg/mL) each time.

Turning to `CC[C@H](C)[C@H](NC(=O)[C@H](CCCCN)NC(=O)[C@H](CCCN=C(N)N)NC(=O)CNC(=O)[C@H](CC(C)C)NC(=O)[C@H](C)NC(=O)[C@H](CCCN=C(N)N)NC(=O)[C@H](CC(C)C)NC(=O)CNC(=O)[C@@H](N)CCCN=C(N)N)C(=O)N[C@@H](C)C(=O)N[C@@H](Cc1cnc[nH]1)C(=O)NCC(=O)N[C@H](C(=O)N[C@@H](CCCCN)C(=O)N[C@@H](C)C(=O)N[C@@H](Cc1ccc(O)cc1)C(=O)NCC(=O)O)C(C)C` [RGLRALGRKIAHGVKAYG], the minimum inhibitory concentration (MIC) was 10.4 µM (≈ 20 µg/mL) in experiment [8]; 20.8 µM (≈ 40 µg/mL) against Aspergillus fumigatus; 10.4 µM (≈ 20 µg/mL) against Bibersteinia trehalosi; 10.4 µM (≈ 20 µg/mL) in experiment [9]; 5.2 µM (≈ 10 µg/mL) in experiment [10]; 10.4 µM (≈ 20 µg/mL) in experiment [11]. Further, the minimal inhibitory concentration (MIC) in experiment [12] was 5.2 µM (≈ 10 µg/mL); in the experiment with Pasteurella multocida, 10.4 µM (≈ 20 µg/mL); against Staphylococcus aureus it was more than 10.4 µM; in [13], 4.32 µM (≈ 8.3 µg/mL); against Klebsiella pneumoniae, more than 10.4 µM.

On to `CC[C@H](C)[C@H](NC(=O)[C@H](CCCN=C(N)N)NC(=O)[C@H](C)NC(=O)[C@H](CC(C)C)NC(=O)[C@@H](N)CCCN=C(N)N)C(=O)N[C@H](C(=O)N[C@H](C(=O)N[C@H](C(=O)N[C@@H](CCCN=C(N)N)C(=O)N[C@H](C(=O)N[C@@H](CCCN=C(N)N)C(=O)N[C@@H](CCCN=C(N)N)C(N)=O)C(C)C)[C@@H](C)CC)C(C)C)C(C)C` [RLARIVVIRVRR], for which the minimal inhibitory concentration (MIC) was not below 64 µM in experiment [14]; 1.33 µM (≈ 2 µg/mL) in experiment [15]; not below 32 µM in [16]; 5.31 µM (≈ 8 µg/mL) in the experiment on Candida albicans; 16 µM (≈ 24.1 µg/mL) in experiment [12]; 5.31 µM (≈ 8 µg/mL) in experiment [17]. Further, the MIC in [18] was not below 64 µM; in experiment [19] it was 5.31 µM (≈ 8 µg/mL); with Escherichia coli UB1005, 5.31 µM (≈ 8 µg/mL); in experiment [20], 10.6 µM (≈ 16 µg/mL); in experiment [21], 5.31 µM (≈ 8 µg/mL).

Consider `CC[C@H](C)[C@H](NC(=O)[C@H](CCCCN)NC(=O)CNC(=O)[C@H](CC(C)C)NC(=O)[C@H](Cc1ccccc1)NC(=O)[C@H](CCC(N)=O)NC(=O)[C@H](Cc1ccccc1)NC(=O)[C@@H](N)C(C)C)C(=O)N[C@H](C(=O)N[C@@H](CCCCN)C(=O)N[C@@H](CCCCN)C(=O)N[C@H](C(=O)NCC(=O)N[C@@H](CC(N)=O)C(=O)N[C@@H](Cc1ccccc1)C(=O)N[C@H](C(=O)N[C@@H](CCCCN)C(=O)NCC(=O)N[C@@H](Cc1ccccc1)C(=O)N[C@@H](CO)C(=O)N[C@@H](CCCCN)C(=O)N[C@H](C(=O)N[C@@H](Cc1ccccc1)C(=O)O)C(C)C)C(C)C)C(C)C)[C@@H](C)CC` [VFQFLGKIIKKVGNFVKGFSKVF], for which the minimum inhibitory concentration (MIC) worked out at 0.152 µM (≈ 0.4 µg/mL) in [7]; 0.342 µM (≈ 0.9 µg/mL) in experiment [22]; 0.494 µM (≈ 1.3 µg/mL) against Escherichia coli ML-35p; 0.266 µM (≈ 0.7 µg/mL) in experiment [23]; 0.342 µM (≈ 0.9 µg/mL) in experiment [24]; 0.266 µM (≈ 0.7 µg/mL) against Escherichia coli BAS 849. For the same compound, the MIC in experiment [25] stood at 1.48 µM (≈ 3.9 µg/mL); in [26], 0.57 µM (≈ 1.5 µg/mL); in experiment [27], 0.494 µM (≈ 1.3 µg/mL); in [28], 0.114 µM (≈ 0.3 µg/mL); in the experiment with Escherichia coli mcr106 it was 0.266 µM (≈ 0.7 µg/mL); in experiment [29], 2.2 µM (≈ 5.8 µg/mL). Also, the MIC was 1.06 µM (≈ 2.8 µg/mL) against Klebsiella pneumoniae, 0.19 µM (≈ 0.5 µg/mL) against Enterococcus faecium, 0.95 µM (≈ 2.5 µg/mL) in experiment [30] and 0.988 µM (≈ 2.6 µg/mL) in experiment [31].
